Reference: patent US11389456B2, “Compounds and methods for treating oxalate-related diseases” (OxaluRx, Inc., priority 2018, dated 2022)

Molecular target: recombinant full-length human hydroxyacid oxidase 1 (HAO1), the equivalent of hGOX (Homo sapiens (Human), UniProt Q9UJM8)
Test: In-vitro human glycolate oxidase (hGOX) assay (Amplex red/HRP fluorescence)
Format: biochemical
Conditions: 12.5 nM HAO1, 85 μM glycolate, 2.5% DMSO; read-out: IC50
Experimental: Biological Activity Assay: In-Vitro Human Glycolate Oxidase (hGOX) Assay
The in-vitro glycolate oxidase assay was performed using recombinant full-length human hydroxyacid oxidase 1 (HAO1), the equivalent of hGOX. […] Purified HAO1 was dissolved in assay buffer consisting of 10 mM NaCl, 110 mM KCl, 2 mM MgCl2, 50 mM HEPES (pH 7.4) and 0.01% Triton™ X-100.

Sequence of recombinant full-length human hydroxyacid oxidase 1 (HAO1), the equivalent of hGOX (Q9UJM8 whole entry): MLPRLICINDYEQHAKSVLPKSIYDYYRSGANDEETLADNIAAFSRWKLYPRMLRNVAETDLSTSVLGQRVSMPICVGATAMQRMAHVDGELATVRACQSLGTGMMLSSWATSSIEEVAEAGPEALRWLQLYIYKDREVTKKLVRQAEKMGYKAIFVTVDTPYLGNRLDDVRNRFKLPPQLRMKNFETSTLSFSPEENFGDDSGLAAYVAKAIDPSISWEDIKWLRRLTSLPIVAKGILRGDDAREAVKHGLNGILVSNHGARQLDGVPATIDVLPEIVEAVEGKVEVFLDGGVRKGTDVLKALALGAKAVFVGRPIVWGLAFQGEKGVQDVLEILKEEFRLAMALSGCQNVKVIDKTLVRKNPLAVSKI

IC50	SMILES
89 nM	C=Cc1cccc(Oc2[nH]nnc2C(=O)O)c1 [Example I-284, 5-(3-Vinylphenoxy)-1H-1,2,3-triazole-4-carboxylic acid]
56 nM	Cc1ccc(Oc2[nH]nnc2C(=O)O)cc1C [Example I-039, 5-(3,4-Dimethylphenoxy)-1H-1,2,3-triazole-4-carboxylic acid]
370 nM	O=C(O)c1nn[nH]c1Oc1cccc(N2CCCCC2)c1 [Example I-281, 5-(3-(Piperidin-1-yl)phenoxy)-1H-1,2,3-triazole-4-carboxylic acid]
76 nM	CC(C)Cc1cccc(Oc2[nH]nnc2C(=O)O)c1 [Example I-296, 5-(3-Isobutylphenoxy)-1H-1,2,3-triazole-4-carboxylic acid]
172 nM	O=C(O)c1nn[nH]c1Oc1cccc(N2CCCC2)c1 [Example I-283, 5-(3-(Pyrrolidin-1-yl)phenoxy)-1H-1,2,3-triazole-4-carboxylic acid]
160 nM	Cc1ccc(Sc2[nH]nnc2C(=O)O)cc1 [Example I-003, 5-(p-Tolylthio)-1H-1,2,3-triazole-4-carboxylic acid]
6530 nM	COc1ccc(Nc2[nH]nnc2C(=O)O)cc1 [Example I-290, 5-((4-Methoxyphenyl)amino)-1H-1,2,3-triazole-4-carboxylic acid]
140 nM	COc1ccc(Sc2[nH]nnc2C(=O)O)cc1 [Example I-004, 5-((4-Methoxyphenyl)thio)-1H-1,2,3-triazole-4-carboxylic acid]
112 nM	CC(C)c1ccc(Oc2[nH]nnc2C(=O)O)cc1 [Example I-274, 5-(4-Isopropylphenoxy)-1H-1,2,3-triazole-4-carboxylic acid]
360 nM	Cc1ccccc1Sc1[nH]nnc1C(=O)O [Example I-010, 5-(o-Tolylthio)-1H-1,2,3-triazole-4-carboxylic acid]
27 nM	O=C(O)c1nn[nH]c1Oc1ccc(F)c(Cl)c1 [Example I-309, 5-(3-Chloro-4-fluorophenoxy)-1H-1,2,3-triazole-4-carboxylic acid]
539 nM	O=C(O)c1nn[nH]c1Oc1cccc(N2CCOCC2)c1 [Example I-282, 5-(3-Morpholinophenoxy)-1H-1,2,3-triazole-4-carboxylic acid]
2 nM	O=C(O)c1nn[nH]c1Oc1cccc(-c2ccc3c(c2)OCO3)c1 [Example I-305, 5-(3-(Benzo[d][1,3]dioxol-5-yl)phenoxy)-1H-1,2,3-triazole-4-carboxylic acid]
270 nM	O=C(O)c1nn[nH]c1Sc1ccccc1Cl [Example I-011, 5-((2-Chlorophenyl)thio)-1H-1,2,3-triazole-4-carboxylic acid]
200 nM	O=C(O)c1nn[nH]c1Sc1ccccc1F [Example I-013, 5-((2-Fluorophenyl)thio)-1H-1,2,3-triazole-4-carboxylic acid]
169 nM	COc1cc(OC)cc(-c2cccc(Oc3[nH]nnc3C(=O)O)c2)c1 [Example I-303, 5-((3′,5′-Dimethoxy-[1,1′-biphenyl]-3-yl)oxy)-1H-1,2,3-triazole-4-carboxylic acid]
88 nM	O=C(O)c1[nH]nnc1Oc1ccc(F)c(F)c1 [Example I-307, 5-(3,4-Difluorophenoxy)-1H-1,2,3-triazole-4-carboxylic acid]
34 nM	CCc1ccc(Oc2[nH]nnc2C(=O)O)cc1 [Example I-298, 5-(4-Ethylphenoxy)-1H-1,2,3-triazole-4-carboxylic acid]
> 500000 nM	CCOC(=O)c1nn[nH]c1Nc1ccc(C)cc1 [Example I-291, ethyl 5-(p-tolylamino)-1H-1,2,3-triazole-4-carboxylate]
222 nM	O=C(O)c1nn[nH]c1Oc1cccc(N2CCCCCC2)c1 [Example I-280, 5-(3-(Azepan-1-yl)phenoxy)-1H-1,2,3-triazole-4-carboxylic acid]
3760 nM	Cc1ccc(Nc2[nH]nnc2C(=O)O)cc1 [Example I-292, 5-(p-Tolylamino)-1H-1,2,3-triazole-4-carboxylic acid]
